From patent US12653191B2, “Active compound combinations” (Bayer Aktiengesellschaft, priority 2020, dated 2026)
Where “and” joins values, the source holds several entries; their conditions need not be identical. Equal values may be shown once. Read-outs that look alike come from different tables or passages of the source.

Columns and labels:
[1] = system: Cercospora beticola; experiment: in vitro-Test with fungal microorganisms, Method B (tables C11-C20); assay type: cell-based
In short: (§1)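 Steps: solvent evaporation leaves the compound coating the wells; fungus-inoculated liquid growth medium goes on top; absorbance at 600 nm is measured; incubation runs 3 to 7 days at 20° C. with 85% relative humidity. Inhibition is then read photometrically and expressed as efficacy against untreated control.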

[2] = system: Alternaria alternata; experiment: in vitro-Test with fungal microorganisms, Method B (tables A13-A22); assay type: cell-based
In short: as §1

[3] = system: Botrytis cinerea; experiment: in vitro-Test with fungal microorganisms, Method B (tables B15-B18); assay type: cell-based
In short: as §1

[4] = system: Cordana musae; experiment: in vitro-Test with fungal microorganisms, Method B (tables E9-E16); assay type: cell-based; conditions: single active
In short: as §1

[5] = system: Fusarium culmorum; experiment: in vitro-Test with fungal microorganisms, Method B (tables G5-G15); assay type: cell-based
In short: as §1

[6] = system: Diaporthe citri; experiment: in vitro-Test with fungal microorganisms, Method B (tables F12-F15); assay type: cell-based
Experimental: (§2) Example: In Vitro-Test with Fungal Microorganisms
(§3) Wells of 96-well microtiter plates are filled with 30 μl of a preparation of test compound or compound combination in methanol+emulsifier alkylaryl-polyglycol-ether. Thereafter, the solvent is evaporated in a hood. At the next step, 200 μl of liquid growth medium is given, that has been amended with an appropriate concentration of spores or mycelium suspension of the test fungus.
(§4) With the aid of a photometer, the extinction in all wells is measured at the wavelength of 600 nm.
(§5) The microtiter plates are incubated for 3 to 7 days at 20° C. and 85% relative humidity. After the incubation inhibition of growth is determined photometrically. Efficacy is calculated in relation to the untreated control, 0% efficacy means fungal growth as high as in untreated control while 100% efficacy means no fungal growth is measured.
(§6) The data in tables A1 to A12, B1 to B14, C1 to C10, D1 to D8, E1 to E8, F1 to F11, G1 to G4, H1 to H4 and I1 to I5 were collected according to Method A. The data in tables A13 to A22, B15 to B18, C11 to C20, E9 to E16, F12 to F15, G5 to G15, H5 to H8, I6 to I11 and J1 to J11 were collected according to Method B.

[7] = system: Parastagonospora nodorum; experiment: in vitro-Test with fungal microorganisms, Method B (tables H5-H8); assay type: cell-based
Experimental: as §2, §3, §4, §5, §6

[8] = system: Colletotrichum coccodes; experiment: in vitro-Test with fungal microorganisms, Method B (tables J1-J11); assay type: cell-based
In short: as §1

[9] = system: Ustilago segetum var. avenae; experiment: in vitro-Test with fungal microorganisms, Method B (tables I6-I11); assay type: cell-based
In short: as §1

[10] = system: Diaporthe citri; experiment: in vitro-Test with fungal microorganisms, Method A (tables F1-F11); assay type: cell-based; conditions: Diaporthe citri, read-out: Efficacy
In short: (§7)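 Compound was dried into wells and overlaid with liquid potato dextrose medium containing spores or mycelium of the fungus. Plates were held at 20° C and 85% RH, and growth was read as extinction at 620 nm after 3–5 days. Efficacy is relative to the untreated control (0% = control growth, 100% = no growth).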

[11] = system: Colletotrichum lindemuthianum; experiment: in vitro-Test with fungal microorganisms, Method A (tables D1-D8); assay type: cell-based; conditions: Colletotrichum lindemuthianum, mixing partner alone, read-out: Efficacy %
In short: as §7

[12] = system: Cercospora beticola; experiment: in vitro-Test with fungal microorganisms, Method A (tables C1-C10); assay type: cell-based; conditions: Cercospora beticola, read-out: Efficacy %
In short: as §7

[13] = system: Botrytis cinerea; experiment: in vitro-Test with fungal microorganisms, Method A (tables B1-B14); assay type: cell-based; conditions: Botrytis cinerea, alone, read-out: Efficacy %
In short: as §7

[14] = system: Alternaria alternate; experiment: in vitro-Test with fungal microorganisms, Method A (tables A1-A12); assay type: cell-based, Alternaria alternata; conditions: Alternaria, applied alone, read-out: Efficacy %
In short: as §7

[15] = single active compound, 0.2 ppm

Cc1nn(C)c(F)c1C(=O)Nc1ccccc1C(C)CC(C)C (centres unmarked) [(2.017) penflufen, penflufen]
Efficacy % ([1]; single compound, 1 ppm): 0% | Efficacy ([2]; 0.2 ppm): 22% | Efficacy ([2]; 5 ppm): 72% | Efficacy % ([3]; 0.04 ppm alone): 0% | Efficacy % ([3]; 5 ppm alone): 70% | Efficacy ([4]; 0.04 ppm): 0% | Efficacy ([4]; 0.2 ppm): 0% | Efficacy ([4]; 1 ppm): 0% | Efficacy ([5]; 0.04 ppm alone): 4% | Efficacy [5, 15]: 10% and 2% | Efficacy ([5]; single active compound, 1 ppm): 11% | Efficacy ([5]; single active compound, 5 ppm): 11% and 8% | Efficacy ([6]; Table F15, 0.04 ppm alone): 0% | Efficacy ([6]; Table F15, 0.2 ppm alone): 2% | Efficacy ([6]; Table F15, 1 ppm alone): 0% | Efficacy ([6]; Table F15, 5 ppm alone): 3% | Efficacy ([7]; 0.04 ppm): 0% | Efficacy ([7]; 0.2 ppm): 5% | Efficacy % ([8]; single active compound at 1 ppm): 0% | Efficacy % ([8]; single active compound at 5 ppm): 27%

Cc1cccc(-n2nnn(C)c2=O)c1COc1ccn(-c2ccc(Cl)cc2)n1 [(3.030) metyltetraprole, metyltetraprole]
Efficacy % ([1]; single compound, 0.04 ppm): 100% | Efficacy % ([1]; single compound, 0.2 ppm): 100% | Efficacy ([2]; 0.008 ppm): 0% | Efficacy ([2]; 1 ppm): 87% | Efficacy % ([3]; 0.008 ppm alone): 7% | Efficacy % ([3]; 0.04 ppm alone): 11% | Efficacy % ([3]; 0.2 ppm alone): 7% | Efficacy % ([3]; 1 ppm alone): 33% | Efficacy % ([9]; 0.2 ppm): 0% | Efficacy ([4]; 0.008 ppm): 0% | Efficacy ([4]; 0.04 ppm): 0% | Efficacy ([4]; 0.2 ppm): 19% | Efficacy ([4]; 1 ppm): 70% | Efficacy ([5]; 0.2 ppm alone): 13% | Efficacy ([5]; single active compound, 0.008 ppm): 7% and 0% | Efficacy ([5]; single active compound, 0.04 ppm): 8% and 0% | Efficacy [5, 15]: 6% and 5% | Efficacy ([5]; single active compound, 1 ppm): 8% and 2% | Efficacy ([6]; Table F14, 0.2 ppm alone): 86% | Efficacy ([7]; 0.04 ppm): 38% | Efficacy ([7]; 1 ppm): 84% | Efficacy % ([8]; single active compound at 0.04 ppm): 0% | Efficacy % ([8]; single active compound at 0.2 ppm): 1%

COCC(=O)N(c1c(C)cccc1C)[C@H](C)C(=O)OC [(12.004) metalaxyl-M, metalaxyl-M (mefenoxam)]
Efficacy % ([1]; 4 ppm): 10% | Efficacy % ([1]; 20 ppm): 0% | Efficacy % ([1]; single compound, 20 ppm): 0% | Efficacy ([2]; 4 ppm): 10% | Efficacy % ([3]; 0.8 ppm, alone): 5% | Efficacy % ([3]; 4 ppm alone): 3% | Efficacy % ([3]; 20 ppm alone): 4% | Efficacy % ([3]; 100 ppm alone): 13% | Efficacy % ([9]; 0.8 ppm, listed as (12.004) metalaxyl-m): 11% | Efficacy % ([9]; 4 ppm): 8% | Efficacy % ([9]; 20 ppm): 12% | Efficacy ([4]; 0.8 ppm): 0% | Efficacy ([4]; 4 ppm): 0% and 9% | Efficacy ([4]; 20 ppm): 0% and 8% | Efficacy ([5]; 0.8 ppm, alone): 0% | Efficacy ([5]; 4 ppm alone): 0% | Efficacy ([5]; single active compound, 100 ppm): 22% and 23% | Efficacy ([6]; Table F14, 0.8 ppm alone): 0% | Efficacy ([6]; Table F14, 4 ppm alone): 0% | Efficacy ([6]; Table F14, 20 ppm alone): 0% | Efficacy ([7]; 0.8 ppm): 12% | Efficacy ([7]; 4 ppm): 8% | Efficacy ([7]; 20 ppm): 3%

COc1cc(C)c(C(=O)c2c(OC)ccc(Br)c2C)c(OC)c1OC [(15.016) metrafenone, metrafenone]
inhibition of growth at 0.2 ppm ([1]; Cercospora beticola, 0.2 ppm, read-out: Efficacy %): 0% | inhibition of growth at 1 ppm ([1]; Cercospora beticola, 1 ppm, read-out: Efficacy %): 0% | inhibition of growth at 5 ppm ([1]; Cercospora beticola, read-out: Efficacy %): 10% | inhibition of growth at 0.2 ppm ([1]; Cercospora beticola, single compound, 0.2 ppm, read-out: Efficacy %): 0% | inhibition of growth at 5 ppm ([1]; Cercospora beticola, single compound, read-out: Efficacy %): 1% | Efficacy ([2]; 0.2 ppm): 3% | inhibition of growth at 0.2 ppm ([2]; Alternaria alternata, 0.2 ppm, read-out: Efficacy): 3% | inhibition of growth at 1 ppm ([2]; Alternaria alternata, 1 ppm, read-out: Efficacy): 6% | inhibition of growth at 5 ppm ([2]; Alternaria alternata, 5 ppm, read-out: Efficacy): 16% | inhibition of growth at 1 ppm ([2]; Alternaria alternata, single compound, 1 ppm, read-out: Efficacy): 0% | inhibition of growth at 0.8 ppm ([10]; Table F11, 0.8 ppm alone): 0% | inhibition of growth at 4 ppm ([10]; Table F11, 4.0 ppm alone): 0% | inhibition of growth at 20 ppm ([10]; Table F11, 20.0 ppm alone): 0% | inhibition of growth at 0.8 ppm ([10]; applied alone, 0.8 ppm): 0% | inhibition of growth at 4 ppm ([10]; applied alone, 4.0 ppm): 10% | inhibition of growth at 20 ppm ([10]; applied alone, 20.0 ppm): 0% | inhibition of growth at 0.04 ppm ([9]; 0.04 ppm, read-out: Efficacy %): 4% | inhibition of growth at 0.2 ppm ([9]; 0.2 ppm, read-out: Efficacy %): 0% | inhibition of growth at 0.8 ppm ([11]; 0.8 ppm): 10% | inhibition of growth at 4 ppm ([11]; 4.0 ppm): 12% | inhibition of growth at 20 ppm ([11]; 20.0 ppm): 21% | inhibition of growth at 0.8 ppm ([12]; 0.8 ppm): 10% | inhibition of growth at 4 ppm ([12]; 4.0 ppm): 0% | inhibition of growth at 20 ppm ([12]; 20.0 ppm): 0% | inhibition of growth at 0.04 ppm ([4]; Neocordana musae, 0.04 ppm, read-out: Efficacy): 0% | inhibition of growth at 0.2 ppm ([4]; Neocordana musae, 0.2 ppm, read-out: Efficacy): 0% | inhibition of growth at 1 ppm ([4]; Neocordana musae, 1 ppm, read-out: Efficacy): 0% | inhibition of growth at 5 ppm ([4]; Neocordana musae, 5 ppm, read-out: Efficacy): 11% | inhibition of growth at 4 ppm ([13]; 4.0 ppm): 0% | inhibition of growth at 20 ppm ([13]; 20.0 ppm): 0% | inhibition of growth at 1 ppm ([5]; Fusarium culmorum, 1 ppm, alone, read-out: Efficacy): 4% | inhibition of growth at 0.04 ppm ([5]; Fusarium culmorum, single active compound, 0.04 ppm, read-out: Efficacy): 0% | inhibition of growth at 0.2 ppm ([5]; Fusarium culmorum, single active compound, 0.2 ppm, read-out: Efficacy): 0% | inhibition of growth at 1 ppm ([5]; Fusarium culmorum, single active compound, 1 ppm, read-out: Efficacy): 7% | inhibition of growth at 5 ppm ([5]; Fusarium culmorum, single active compound, 5 ppm, read-out: Efficacy): 13% | Efficacy ([5]; single active compound, 5 ppm): 13% | Efficacy ([6]; Table F12, 1 ppm alone): 3% | Efficacy ([6]; Table F12, 5 ppm alone): 0% | Efficacy ([6]; Table F14, 0.04 ppm alone): 0% | Efficacy ([6]; Table F14, 0.2 ppm alone): 0% | Efficacy ([6]; Table F14, 1 ppm alone): 0% | Efficacy ([6]; Table F14, 5 ppm alone): 0% | inhibition of growth at 0.04 ppm ([7]; Parastagonospora nodorum, 0.04 ppm, read-out: Efficacy): 0% | inhibition of growth at 0.2 ppm ([7]; Parastagonospora nodorum, 0.2 ppm, read-out: Efficacy): 0% | inhibition of growth at 1 ppm ([7]; Parastagonospora nodorum, 1 ppm, read-out: Efficacy): 0% | inhibition of growth at 5 ppm ([7]; Parastagonospora nodorum, 5 ppm, read-out: Efficacy): 32% | inhibition of growth at 5 ppm ([8]; Colletotrichum coccodes, single active compound at 5 ppm, read-out: Efficacy %): 2% | inhibition of growth at 0.8 ppm ([14]; 0.8 ppm): 0% | inhibition of growth at 4 ppm ([14]; 4 ppm): 0% | inhibition of growth at 20 ppm ([14]; 20 ppm): 11%
